Where only a bound is given, the exact number is not on record here.

T1 sequence (Q06187 whole entry): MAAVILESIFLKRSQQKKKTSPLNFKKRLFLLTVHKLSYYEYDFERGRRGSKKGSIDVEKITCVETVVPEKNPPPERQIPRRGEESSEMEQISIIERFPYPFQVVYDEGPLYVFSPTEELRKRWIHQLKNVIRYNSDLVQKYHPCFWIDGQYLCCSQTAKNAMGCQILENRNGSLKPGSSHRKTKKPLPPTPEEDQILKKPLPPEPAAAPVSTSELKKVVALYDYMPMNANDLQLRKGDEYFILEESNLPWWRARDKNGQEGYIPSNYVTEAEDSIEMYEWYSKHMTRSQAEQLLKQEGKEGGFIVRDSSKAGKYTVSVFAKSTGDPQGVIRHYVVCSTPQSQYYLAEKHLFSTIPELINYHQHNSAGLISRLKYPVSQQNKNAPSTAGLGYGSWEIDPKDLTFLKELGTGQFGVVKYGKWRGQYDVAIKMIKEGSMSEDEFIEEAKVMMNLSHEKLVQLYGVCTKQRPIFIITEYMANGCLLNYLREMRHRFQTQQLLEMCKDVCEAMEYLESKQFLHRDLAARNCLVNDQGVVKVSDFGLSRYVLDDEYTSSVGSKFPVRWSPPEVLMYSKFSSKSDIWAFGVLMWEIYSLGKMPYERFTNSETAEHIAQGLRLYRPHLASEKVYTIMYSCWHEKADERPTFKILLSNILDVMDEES

The assay has as its target T1, BTK enzyme (Homo sapiens, UniProt Q06187).
T1 construct: purchased Upstate 14-552
Put plainly: In vitro BTK kinase assay: BTK-POLYGAT-LS assay. The assay is classed as biochemical. The settings on record: ATP 10 μM, read-out: IC50 (10uMATP). As to the method:
The purpose of the BTK in vitro assay is to determine compound potency against BTK through the measurement of IC50. […] For a typical assay, a 24 μL aliquot of a ATP/peptide master mix (final concentration; ATP 10 μM, polyGAT 100 nM) in kinase buffer (10 mM Tris-HCl pH 7.5, 10 mM MgCl2, 200 μM Na3PO4, 5 mM DTT, 0.01% Triton X-100, and 0.2 mg/ml casein) is added to each well. […] The assay is incubated for 30 minutes before being stopped with 28 μL of a 50 mM EDTA solution. […] The plate is covered and incubated for 45 minutes at room temperature.
As a reminder, the IC50 is the concentration needed to halve the response being measured. For `Cc1cc(-c2ccnc(Nc3cn(C)nn3)n2)ccc1CNC(=O)c1cnc(C(C)(C)C)s1` [Example I-58, 2-(tert-butyl)-N-(2-methyl-4-(2-((1-methyl-1H-1,2,3-triazol-4-yl)amino)pyrimidin-4-yl)benzyl)thiazole-5-carboxamide], the IC50 was 10 to 99 nM. The value for `Cc1cc(-c2ccnc(Nc3cnn(C)c3)n2)ccc1CNC(=O)c1ccc(Cl)c(Cl)c1` [Example I-8, 3,4-dichloro-N-(2-methyl-4-(2-((1-methyl-1H-pyrazol-4-yl)amino)pyrimidin-4-yl)benzyl)benzamide] was less than 10 nM. The value for `Cn1cc(Nc2nccc(-c3ccc4c(c3)COCC4NC(=O)c3cnc(C(C)(C)C)s3)n2)cn1` (stereo not drawn) [Example I-98, 2-(tert-butyl)-N-(7-(2-((1-methyl-1H-pyrazol-4-yl)amino)pyrimidin-4-yl)isochroman-4-yl)thiazole-5-carboxamide] was 10 to 99 nM; that for `Cc1cc(-c2ccnc(Nc3cnn(C[C@@H](N)CO)c3)n2)ccc1CNC(=O)c1cnc(C(C)(C)C)s1` [Example I-133, (R)—N-(4-(2-((1-(2-amino-3-hydroxypropyl)-1H-pyrazol-4-yl)amino)pyrimidin-4-yl)-2-methylbenzyl)-2-(tert-butyl)thiazole-5-carboxamide] was less than 10 nM. The value for `Cc1cc(-c2ccnc(N)n2)ccc1CNC(=O)c1cncs1` [Example I-84, N-(4-(2-aminopyrimidin-4-yl)-2-methylbenzyl)thiazole-5-carboxamide] was 1000 to 10000 nM. `Cc1cc(-c2ccnc(Nc3cnn(C)c3)n2)ccc1C(C)NC(=O)c1cc2c(s1)CCOC2` (stereo not drawn) [Example I-105, N-(1-(2-methyl-4-(2-((1-methyl-1H-pyrazol-4-yl)amino)pyrimidin-4-yl)phenyl)ethyl)-6,7-dihydro-4H-thieno[3,2-c]pyran-2-carboxamide]: the IC50 lay within 10 to 99 nM.

As for `Cc1cc(-c2cnnc(Nc3cnn(C)c3)c2)ccc1CNC(=O)c1cnc(C(C)(C)C)s1` [Example I-114, 2-(tert-butyl)-N-(2-methyl-4-(6-((1-methyl-1H-pyrazol-4-yl)amino)pyridazin-4-yl)benzyl)thiazole-5-carboxamide], the IC50 was in the range of 100 to 999 nM. With `Cc1cc(-c2ccnc(Nc3cnn(C)c3)n2)ccc1CNC(=O)c1ccn(C)c1` [Example I-155, 1-Methyl-N-(2-methyl-4-(2-((1-methyl-1H-pyrazol-4-yl)amino)pyrimidin-4-yl)benzyl)-1H-pyrrole-3-carboxamide], the IC50 lay within 10 to 99 nM. The value for `Cc1cc(-c2ccnc(NC3CCOCC3)n2)ccc1CNC(=O)c1cnc(C(C)(C)C)s1` [Example I-26, 2-(tert-butyl)-N-(2-methyl-4-(2-((tetrahydro-2H-pyran-4-yl)amino)pyrimidin-4-yl)benzyl)thiazole-5-carboxamide] was 1000 to 10000 nM; that for `CC(=O)Nc1cc(-c2ccc(CNC(=O)c3cc4c(s3)CCCC4)c(C)c2)ncn1` [Example I-143, N-(4-(6-acetamidopyrimidin-4-yl)-2-methylbenzyl)-4,5,6,7-tetrahydrobenzo[b]thiophene-2-carboxamide] was less than 10 nM.

In the case of `Cc1cc(-c2ccnc(Nc3ccc(N4CCN(C)CC4)cn3)n2)ccc1CNC(=O)c1cc2c(s1)CCNC2` [Example I-119, N-(2-methyl-4-(2-((5-(4-methylpiperazin-1-yl)pyridin-2-yl)amino)pyrimidin-4-yl)benzyl)-4,5,6,7-tetrahydrothieno[3,2-c]pyridine-2-carboxamide], the IC50 was 100 to 999 nM. The value for `Cc1cc(-c2ccnc(Nc3cnn(C)c3)n2)cnc1CNC(=O)c1cnc(C(C)(C)C)s1` [Example I-100, 2-(tert-butyl)-N-((3-methyl-5-(2-((1-methyl-1H-pyrazol-4-yl)amino)pyrimidin-4-yl)pyridin-2-yl)methyl)thiazole-5-carboxamide] was 10 to 99 nM; that for `Cc1cc(-c2ccnc(Nc3cnn(C)c3)n2)ccc1CNC(=O)[C@H]1CC[C@@H](C(F)(F)F)CC1` [Example I-17, cis-N-(2-methyl-4-(2-((1-methyl-1H-pyrazol-4-yl)amino)pyrimidin-4-yl)benzyl)-4-(trifluoromethyl)cyclohexanecarboxamide] was 100 to 999 nM. Regarding `Cc1cc(-c2ccnc(Nc3cnn(C)c3)n2)ccc1CNC(=O)c1cc(C(C)(C)C)on1` [Example I-153, 5-(tert-butyl)-N-(2-methyl-4-(2-((1-methyl-1H-pyrazol-4-yl)amino)pyrimidin-4-yl)benzyl)isoxazole-3-carboxamide], the IC50 is less than 10 nM.

As for `Cc1cc(-c2ccnc(Nc3c(C)nn(C)c3C)n2)ccc1CNC(=O)c1cnc(C(C)(C)C)s1` [Example I-53, 2-(tert-butyl)-N-(2-methyl-4-(2-((1,3,5-trimethyl-1H-pyrazol-4-yl)amino)pyrimidin-4-yl)benzyl)thiazole-5-carboxamide], the IC50 was 100 to 999 nM.

Consider `Cn1cc(Nc2cc(-c3ccc4c(c3)CCCC4NC(=O)c3cnc(C(C)(C)C)s3)ncn2)cn1` (stereo not drawn) [Example I-92, 2-(tert-butyl)-N-(6-(6-((1-methyl-1H-pyrazol-4-yl)amino)pyrimidin-4-yl)-1,2,3,4-tetrahydronaphthalen-1-yl)thiazole-5-carboxamide], for which the IC50 was in the range of 10 to 99 nM.

Consider `CC(C)(C)c1ncc(C(=O)NC2CCCc3cc(-c4cc(Nc5cn[nH]c5)ncn4)ccc32)s1` (stereo not drawn) [Example I-93, N-(6-(6-((1H-pyrazol-4-yl)amino)pyrimidin-4-yl)-1,2,3,4-tetrahydronaphthalen-1-yl)-2-(tert-butyl)thiazole-5-carboxamide], for which the IC50 fell in the range of 10 to 99 nM. The value for `Cc1cc(-c2ccnc(N)n2)ccc1CNC(=O)c1cc2c(s1)CNCC2` [Example I-82, N-(4-(2-aminopyrimidin-4-yl)-2-methylbenzyl)-4,5,6,7-tetrahydrothieno[2,3-c]pyridine-2-carboxamide] was 100 to 999 nM. The value for `Cc1cc(-c2ccnc(Nc3cnn(C)c3)n2)ccc1C(CO)NC(=O)c1cc2c(s1)CCOC2` (stereo not drawn) [Example I-109, N-(2-hydroxy-1-(2-methyl-4-(2-((1-methyl-1H-pyrazol-4-yl)amino)pyrimidin-4-yl)phenyl)ethyl)-6,7-dihydro-4H-thieno[3,2-c]pyran-2-carboxamide] was 10 to 99 nM; that for `Cc1nc(-c2ccnc(Nc3cnn(C)c3)c2)ccc1CNC(=O)c1cnc(C(C)(C)C)s1` [Example I-102, 2-(tert-butyl)-N-((6-methyl-2′-((1-methyl-1H-pyrazol-4-yl)amino)-[2,4′-bipyridin]-5-yl)methyl)thiazole-5-carboxamide] was 10 to 99 nM; that for `Cc1cc(-c2ccnc(N[C@@H](C)C3CCCCC3)n2)ccc1CNC(=O)c1cnc(C(C)(C)C)s1` [Example I-28, (S)-2-(tert-butyl)-N-(4-(2-((1-cyclohexylethyl)amino)pyrimidin-4-yl)-2-methylbenzyl)thiazole-5-carboxamide] was more than 10000 nM. The value for `Cc1cc(-c2cc(Nc3cc4n(n3)CCCNC4)ncn2)ccc1CNC(=O)c1cnc(C(C)(C)C)s1` [Example I-148, 2-(tert-butyl)-N-(2-methyl-4-(6-((5,6,7,8-tetrahydro-4H-pyrazolo[1,5-a][1,4]diazepin-2-yl)amino)pyrimidin-4-yl)benzyl)thiazole-5-carboxamide] was less than 10 nM; that for `Cc1cc(-c2ccnc(NC(=O)C3CCN(C)CC3)c2)ccc1CNC(=O)c1cnc(C(C)(C)C)s1` [Example I-71, 2-(tert-butyl)-N-(2-methyl-4-(2-(1-methylpiperidine-4-carboxamido)pyridin-4-yl)benzyl)thiazole-5-carboxamide] was 10 to 99 nM; that for `Cc1cc(-c2cc(Nc3ccn(CCO)n3)ncn2)ccc1CNC(=O)c1cnc(C(C)(C)C)s1` [Example I-151, 2-(tert-butyl)-N-(4-(6-((1-(2-hydroxyethyl)-1H-pyrazol-3-yl)amino)pyrimidin-4-yl)-2-methylbenzyl)thiazole-5-carboxamide] was less than 10 nM.

`C=CC(=O)N(C)Cc1cc(-c2ccnc(N)n2)ccc1CNC(=O)c1cc2c(s1)CCCC2` [Example I-146, N-(4-(2-aminopyrimidin-4-yl)-2-((N-methylacrylamido)methyl)benzyl)-4,5,6,7-tetrahydrobenzo[b]thiophene-2-carboxamide]: the IC50 was in the range of 100 to 999 nM.

For `Cc1cc(-c2ccnc(NC(C)C)n2)ccc1CNC(=O)c1cnc(C(C)(C)C)s1` [Example I-35, 2-(tert-butyl)-N-(4-(2-(isopropylamino)pyrimidin-4-yl)-2-methylbenzyl)thiazole-5-carboxamide], the IC50 is 1000 to 10000 nM.

As for `Cc1nc(-c2ccnc(Nc3cnn(C)c3)n2)ccc1CNC(=O)c1cnc(C(C)(C)C)s1` [Example I-103, 2-(tert-butyl)-N-((2-methyl-6-(2-((1-methyl-1H-pyrazol-4-yl)amino)pyrimidin-4-yl)pyridin-3-yl)methyl)thiazole-5-carboxamide], the half-maximal inhibitory concentration (IC50) was in the range of 10 to 99 nM. The value for `Cc1cc(-c2ccnc(Nc3cnn(C)c3)n2)ccc1C(C)NC(=O)c1cnc(C(C)(C)C)s1` (stereo not drawn) [Example I-106, 2-(tert-butyl)-N-(1-(2-methyl-4-(2-((1-methyl-1H-pyrazol-4-yl)amino)pyrimidin-4-yl)phenyl)ethyl)thiazole-5-carboxamide] was less than 10 nM. On to `Cc1cc(-c2ccnc(N)n2)ccc1CNC(=O)c1nc2c(s1)CCNCC2` [Example I-73, N-(4-(2-aminopyrimidin-4-yl)-2-methylbenzyl)-5,6,7,8-tetrahydro-4H-thiazolo[4,5-d]azepine-2-carboxamide], for which the IC50 lay within 1000 to 10000 nM. The value for `Cn1cc(Nc2nccc(-c3ccc4c(c3)CCC4NC(=O)c3cnc(C(C)(C)C)s3)n2)cn1` (stereo not drawn) [Example I-90, 2-(tert-butyl)-N-(5-(2-((1-methyl-1H-pyrazol-4-yl)amino)pyrimidin-4-yl)-2,3-dihydro-1H-inden-1-yl)thiazole-5-carboxamide] was 10 to 99 nM.

The record behind these values is patent publication US10759783B2, “Biaryl inhibitors of Bruton'S tyrosine kinase” (BIOGEN MA INC., priority 2013, dated 2020).
